*1 amine or outer side, *2 acyl side, *3 side chain or, on linkers, in order; H or OH if unused. Where a SMILES comes first, the peptide text is derived from it. Bridges are numbered along the chain shown (N, C = ends). Triazole bridges read from a SMILES are 1,4-linked. [ ]: non-standard residue; d: D form. The star is where a group is joined. Perfluorobiphenyl(4,4') = Fc1c(F)c([*:1])c(F)c(F)c1-c1c(F)c(F)c([*:2])c(F)c1F; Pyridine(2,6-diCH2) = c1cc(C[*:1])nc(C[*:2])c1; Lys(N3) = [N-]=[N+]=NCCCC[C@H](N)C(=O)O; NH(CH2CH2O)2(CH2)6Cl = ClCCCCCCOCCOCCN*; Orn(N3) = [N-]=[N+]=NCCC[C@H](N)C(=O)O; pXylylene = c1cc(C[*:2])ccc1C[*:1]; S8 = C=CCCCCCC[C@](C)(N)C(=O)O; Suc = O=C(CCC(=O)[*:2])[*:1]; S5 = C=CCCC[C@](C)(N)C(=O)O; Hpra = C#CCC[C@H](N)C(=O)O; Pra = C#CC[C@H](N)C(=O)O
Experiments:
[1] = Binding affinity to N-terminal hexahistidine-tagged recombinant human Mint2-PARM (364 to 570 residues) in presence of probe [(TAMRA)-NNG-QNGYENPTYKFFEQMQN] by fluorescense polarization assay
trypsin = assay: Stability of compound in PBS at pH 7.4 assessed as bovine pancreas trypsin mediated degradation by measuring half life at 100 uM measured after 120 mins by RP UPLC analysis; format: ADME, tissue-based, Bos taurus; details: cattle
[2] = system: Streptomyces griseus protease; assay: Stability of compound in PBS at pH 7.4 assessed as Streptomyces griseus protease mediated degradation by measuring half life at 100 uM measured after 120 mins by RP UPLC analysis; format: ADME
proteinase K = proteinase K (Engyodontium album, UniProt P06873); assay: Stability of compound in PBS at pH 7.4 assessed as Parengyodontium album proteinase K mediated degradation by measuring half life at 100 uM measured after 120 mins by RP UPLC analysis; format: ADME
[3] = Metabolic stability in human plasma assessed as half life at 500 uM incubated for 480 mins by RP UPLC analysis; format: ADME, cell-free
[4] = Drug uptake in human HeLa cells assessed as drug penetration incubated for 4 hrs by CA-TAMRA based CAPA assay; format: ADME, cell-based
[5] = Binding affinity to N-terminal hexahistidine-tagged recombinant human Mint2-PARM (364 to 570 residues) by ITC method
SH-SY5Y = assay: Cytotoxicity against human SH-SY5Y cells assessed as reduction in cell viability at 100 uM incubated for 48 hrs by MTT assay; format: toxicity, cell-based
Homo sapiens = species on record: Homo sapiens; assay: Binding affinity to N-terminal hexahistidine-tagged recombinant human Mint2-PARM (364 to 570 residues) assessed as change in entropy by ITC method

proteinase K, sequence (P06873 whole entry): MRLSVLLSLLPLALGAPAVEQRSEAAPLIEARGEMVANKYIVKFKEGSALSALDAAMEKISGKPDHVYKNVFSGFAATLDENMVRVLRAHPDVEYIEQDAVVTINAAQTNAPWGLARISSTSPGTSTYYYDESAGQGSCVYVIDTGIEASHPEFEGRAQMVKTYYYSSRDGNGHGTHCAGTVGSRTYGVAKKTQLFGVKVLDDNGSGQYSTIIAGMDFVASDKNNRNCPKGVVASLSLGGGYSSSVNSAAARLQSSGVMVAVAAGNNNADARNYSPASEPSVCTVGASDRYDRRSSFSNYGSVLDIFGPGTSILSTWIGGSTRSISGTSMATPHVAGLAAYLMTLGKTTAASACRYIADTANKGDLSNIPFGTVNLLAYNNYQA

## NCCCC[C@@H]1NC(=O)[C@H](Cc2ccc(O)cc2)NC(=O)[C@@H](NC(=O)[C@@H]2CCCN2C(=O)[C@H](CC(N)=O)NC(=O)[C@H](CCC(=O)O)NC(=O)[C@H](Cc2ccc(O)cc2)NC(=O)CNC(=O)[C@@H](N)CC(N)=O)CSc2c(F)c(F)c(c(F)c2F)-c2c(F)c(F)c(c(F)c2F)SC[C@@H](C(=O)N[C@@H](CCC(=O)O)C(=O)O)NC(=O)[C@H](Cc2ccccc2)NC1=O (H-NGYENPCYKFCE-OH; linker 7-11 via Perfluorobiphenyl(4,4'))
[1]
  Ki: 0.9 µM

## NCCCC[C@@H]1NC(=O)[C@H](Cc2ccc(O)cc2)NC(=O)[C@@H](NC(=O)[C@@H]2CCCN2C(=O)[C@H](CC(N)=O)NC(=O)[C@H](CCC(=O)O)NC(=O)[C@H](Cc2ccc(O)cc2)NC(=O)CNC(=O)[C@@H](N)CC(N)=O)CCCCn2cc(nn2)C[C@@H](C(=O)N[C@@H](CCC(=O)O)C(=O)O)NC(=O)[C@H](Cc2ccccc2)NC1=O (H-NGYENP[Lys(N3)]YKF[Pra]E-OH; triazole 7-11)
trypsin
  half-life at 100 µM: > 2 h
[2]
  half-life at 100 µM: 0.333 h
Proteinase K
  half-life at 100 µM: 0.467 h
[1]
  Ki: 1.2 µM
[3]
  half-life at 500 µM: 0.675 h
[4]
  EC50: 42.9 µM
[5]
  Kd: 1 µM

## C[C@@H](O)[C@H](NC(=O)[C@@H]1CCCN1C(=O)[C@H](CC(N)=O)NC(=O)[C@H](CCC(=O)O)NC(=O)[C@H](Cc1ccc(O)cc1)NC(=O)CNC(=O)[C@H](CC(N)=O)NC(=O)CCC(=O)NCCOCCOCCCCCCCl)C(=O)N[C@@H](Cc1ccc(O)cc1)C(=O)N[C@@H](CCCCN)C(=O)N[C@@H](Cc1ccccc1)C(=O)N[C@@H](Cc1ccccc1)C(=O)N[C@@H](CCC(=O)O)C(=O)O ({NH(CH2CH2O)2(CH2)6Cl-Suc}-NGYENPTYKFFE-OH)
[4]
  EC50: 42 µM

## NCCCC[C@H](NC(=O)[C@H](Cc1ccc(O)cc1)NC(=O)[C@H](CS)NC(=O)[C@@H]1CCCN1C(=O)[C@H](CC(N)=O)NC(=O)[C@H](CCC(=O)O)NC(=O)[C@H](Cc1ccc(O)cc1)NC(=O)CNC(=O)[C@@H](N)CC(N)=O)C(=O)N[C@@H](Cc1ccccc1)C(=O)N[C@@H](CS)C(=O)N[C@@H](CCC(=O)O)C(=O)O (H-NGYENPCYKFCE-OH)
[1]
  Ki: 21.4 µM

## NCCCC[C@@H]1NC(=O)[C@H](Cc2ccc(O)cc2)NC(=O)[C@@H](NC(=O)[C@@H]2CCCN2C(=O)[C@H](CC(N)=O)NC(=O)[C@H](CCC(=O)O)NC(=O)[C@H](Cc2ccc(O)cc2)NC(=O)CNC(=O)[C@H](CC(N)=O)NC(=O)CCC(=O)NCCOCCOCCCCCCCl)CCSCc2ccc(cc2)CSCC[C@@H](C(=O)N[C@H](CCC(=O)O)C(=O)O)NC(=O)[C@H](Cc2ccccc2)NC1=O
[4]
  EC50: 14.5 µM

## H-NGYENPTYKFFE-OH
trypsin
  half-life at 100 µM: 0.43 h
SH-SY5Y
  Activity: 20%
[1]
  Ki: 4 µM

## C[C@@]1(C(=O)N[C@@H](CCC(=O)O)C(=O)O)CCCCCC/C=C/CCC[C@](C)(NC(=O)[C@@H]2CCCN2C(=O)[C@H](CC(N)=O)NC(=O)[C@H](CCC(=O)O)NC(=O)[C@H](Cc2ccc(O)cc2)NC(=O)CNC(=O)[C@@H](N)CC(N)=O)C(=O)N[C@@H](Cc2ccc(O)cc2)C(=O)N[C@@H](CCCCN)C(=O)N[C@@H](Cc2ccccc2)C(=O)N1 (H-NGYENP[S5]YKF[S8]E-OH; staple (E) 7-11)
[1]
  Ki: 0.8 µM

## NCCCC[C@@H]1NC(=O)[C@H](Cc2ccc(O)cc2)NC(=O)[C@@H](NC(=O)[C@@H]2CCCN2C(=O)[C@H](CC(N)=O)NC(=O)[C@H](CCC(=O)O)NC(=O)[C@H](Cc2ccc(O)cc2)NC(=O)CNC(=O)[C@@H](N)CC(N)=O)CSCc2cccc(n2)CSC[C@@H](C(=O)N[C@@H](CCC(=O)O)C(=O)O)NC(=O)[C@H](Cc2ccccc2)NC1=O (H-NGYENPCYKFCE-OH; linker 7-11 via Pyridine(2,6-diCH2))
[1]
  Ki: 6.5 µM

## NCCCC[C@H]1NC(=O)[C@@H](Cc2ccc(O)cc2)NC(=O)[C@H](NC(=O)[C@@H]2CCCN2C(=O)[C@@H](CC(N)=O)NC(=O)[C@H](CCC(=O)O)NC(=O)[C@H](Cc2ccc(O)cc2)NC(=O)CNC(=O)[C@H](N)CC(N)=O)CC(=O)NCC[C@H](C(=O)N[C@H](CCC(=O)O)C(=O)O)NC(=O)[C@@H](Cc2ccccc2)NC1=O
[1]
  Ki: 214 µM

## NCCCC[C@@H]1NC(=O)[C@H](Cc2ccc(O)cc2)NC(=O)[C@@H](NC(=O)[C@@H]2CCCN2C(=O)[C@H](CC(N)=O)NC(=O)[C@H](CCC(=O)O)NC(=O)[C@H](Cc2ccc(O)cc2)NC(=O)CNC(=O)[C@@H](N)CC(N)=O)CCCn2cc(nn2)CC[C@@H](C(=O)N[C@@H](CCC(=O)O)C(=O)O)NC(=O)[C@H](Cc2ccccc2)NC1=O (H-NGYENP[Orn(N3)]YKF[Hpra]E-OH; triazole 7-11)
[1]
  Ki: 64.6 µM

## NCCCC[C@@H]1NC(=O)[C@H](Cc2ccc(O)cc2)NC(=O)[C@@H](NC(=O)[C@@H]2CCCN2C(=O)[C@H](CC(N)=O)NC(=O)[C@H](CCC(=O)O)NC(=O)[C@H](Cc2ccc(O)cc2)NC(=O)CNC(=O)[C@@H](N)CC(N)=O)CCCCNC(=O)C[C@@H](C(=O)N[C@@H](CCC(=O)O)C(=O)O)NC(=O)[C@H](Cc2ccccc2)NC1=O (H-NGYENPKYKFDE-OH; lactam 7-11)
trypsin
  half-life at 100 µM: > 2 h
[2]
  half-life at 100 µM: 0.45 h
Proteinase K
  half-life at 100 µM: > 2 h
[1]
  Ki: 1 µM
[3]
  half-life at 500 µM: 1.18 h
[4]
  EC50: 77.9 µM
[5]
  Kd: 5.77 µM

## NCCCC[C@@H]1NC(=O)[C@H](Cc2ccc(O)cc2)NC(=O)[C@@H](NC(=O)[C@H]2CCCN2C(=O)[C@H](CC(N)=O)NC(=O)[C@@H](CCC(=O)O)NC(=O)[C@@H](Cc2ccc(O)cc2)NC(=O)CNC(=O)[C@@H](N)CC(N)=O)CCSCc2ccc(cc2)CSCC[C@@H](C(=O)N[C@@H](CCC(=O)O)C(=O)O)NC(=O)[C@H](Cc2ccccc2)NC1=O
Homo sapiens
  TdeltaS: -2.03 kcal/mol

## NCCCC[C@@H]1NC(=O)[C@H](Cc2ccc(O)cc2)NC(=O)[C@@H](NC(=O)[C@@H]2CCCN2C(=O)[C@H](CC(N)=O)NC(=O)[C@H](CCC(=O)O)NC(=O)[C@H](Cc2ccc(O)cc2)NC(=O)CNC(=O)[C@@H](N)CC(N)=O)CSCc2ccc(cc2)CSC[C@@H](C(=O)N[C@@H](CCC(=O)O)C(=O)O)NC(=O)[C@H](Cc2ccccc2)NC1=O (H-NGYENPCYKFCE-OH; linker 7-11 via pXylylene)
[1]
  Ki: 0.4 µM

## C[C@@]1(C(=O)N[C@@H](CCC(=O)O)C(=O)O)CCC/C=C\CCCCCC[C@](C)(NC(=O)[C@@H]2CCCN2C(=O)[C@H](CC(N)=O)NC(=O)[C@H](CCC(=O)O)NC(=O)[C@H](Cc2ccc(O)cc2)NC(=O)CNC(=O)[C@@H](N)CC(N)=O)C(=O)N[C@@H](Cc2ccc(O)cc2)C(=O)N[C@@H](CCCCN)C(=O)N[C@@H](Cc2ccccc2)C(=O)N1 (H-NGYENP[S8]YKF[S5]E-OH; staple (Z) 7-11)
[1]
  Ki: 2.3 µM

## C[C@@]1(C(=O)N[C@H](CCC(=O)O)C(=O)O)CCC/C=C\CCC[C@](C)(NC(=O)[C@@H]2CCCN2C(=O)[C@H](CC(N)=O)NC(=O)[C@H](CCC(=O)O)NC(=O)[C@H](Cc2ccc(O)cc2)NC(=O)CNC(=O)[C@H](CC(N)=O)NC(=O)CCC(=O)NCCOCCOCCCCCCCl)C(=O)N[C@@H](Cc2ccc(O)cc2)C(=O)N[C@@H](CCCCN)C(=O)N[C@@H](Cc2ccccc2)C(=O)N1
[4]
  EC50: 77.9 µM

## NCCCC[C@@H]1NC(=O)[C@H](Cc2ccc(O)cc2)NC(=O)[C@@H](NC(=O)[C@@H]2CCCN2C(=O)[C@H](CC(N)=O)NC(=O)[C@H](CCC(=O)O)NC(=O)[C@H](Cc2ccc(O)cc2)NC(=O)CNC(=O)[C@@H](N)CC(N)=O)CCSCc2ccc(cc2)CSCC[C@@H](C(=O)N[C@@H](CCC(=O)O)C(=O)O)NC(=O)[C@H](Cc2ccccc2)NC1=O
trypsin
  half-life at 100 µM: > 2 h
[2]
  half-life at 100 µM: > 2 h
Proteinase K
  half-life at 100 µM: > 2 h
[1]
  Ki: 0.3 µM
[3]
  half-life at 500 µM: 1.5 h
[4]
  EC50: 14.5 µM
[5]
  Kd: 1.04 µM

## C[C@@]1(C(=O)N[C@@H](CCC(=O)O)C(=O)O)CCC/C=C\CCC[C@](C)(NC(=O)[C@@H]2CCCN2C(=O)[C@H](CC(N)=O)NC(=O)[C@H](CCC(=O)O)NC(=O)[C@@H](Cc2ccc(O)cc2)NC(=O)CNC(=O)[C@H](N)CC(N)=O)C(=O)N[C@@H](Cc2ccc(O)cc2)C(=O)N[C@@H](CCCCN)C(=O)N[C@@H](Cc2ccccc2)C(=O)N1
trypsin
  half-life at 100 µM: > 2 h
Homo sapiens
  TdeltaS: -1.44 kcal/mol
[2]
  half-life at 100 µM: > 2 h
Proteinase K
  half-life at 100 µM: > 2 h
[1]
  Ki: 0.5 µM
[3]
  half-life at 500 µM: 2.02 h
[4]
  EC50: 33.3 µM
[5]
  Kd: 0.24 µM

From ChEMBL document CHEMBL5380799, “Comprehensive Peptide Cyclization Examination Yields Optimized APP Scaffolds with Improved Affinity toward Mint2” (J Med Chem, 2023)
